Reference: patent US4469680A, “Iodinated vasopressin antagonists” (SmithKline Beckman Corporation, priority 1983, dated 1984)
Starred links: 1 amine or outer side, 2 acyl side, 3 side chain; linkers in the order of their positions; H or OH if unused. Positions of bridges follow the written chain, without caps; N, C: chain ends. Non-standard residues stand in square brackets, D forms with d. Residues, ends and D or L forms follow the SMILES beside them. dTyr(3,5-I2) = N[C@H](Cc1cc(I)c(O)c(I)c1)C(=O)O; dTyr(3-I) = N[C@H](Cc1ccc(O)c(I)c1)C(=O)O; X1 = O=C(CC1(S[*:2])CCCCC1)[*:1]

Molecular target: vasopressin receptors (V2 -receptors) (Sus scrofa, UniProt P32307)
Test: biochemical
Description: These values represent total and non-specific binding, respectively.

Sequence of vasopressin receptors (V2 -receptors) (P32307 whole entry): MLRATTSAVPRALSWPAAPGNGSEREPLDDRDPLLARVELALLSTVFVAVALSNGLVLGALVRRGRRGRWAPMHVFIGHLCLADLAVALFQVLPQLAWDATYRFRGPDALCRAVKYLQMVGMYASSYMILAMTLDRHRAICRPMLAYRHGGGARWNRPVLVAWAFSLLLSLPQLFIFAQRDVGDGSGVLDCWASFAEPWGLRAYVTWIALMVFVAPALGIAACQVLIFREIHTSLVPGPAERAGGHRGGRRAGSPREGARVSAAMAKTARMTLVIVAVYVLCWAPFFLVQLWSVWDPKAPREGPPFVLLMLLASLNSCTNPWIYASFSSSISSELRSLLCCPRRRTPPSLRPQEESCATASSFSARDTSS

Structure (SMILES) | Kb [nM]
CC(C)[C@@H]1NC(=O)[C@H](Cc2ccccc2)NC(=O)[C@@H](Cc2ccc(O)cc2)NC(=O)CC2(CCCCC2)SSC[C@@H](C(=O)N2CCC[C@H]2C(=O)N[C@@H](CCCN=C(N)N)C(=O)NCC(N)=O)NC(=O)[C@H](CC(N)=O)NC1=O [A, [Pmp^1, D-Tyr^2, Val^4]AVP, reference compound] ([dY]FVNCPRG-NH2; linker N-5 via X1) | 100
CC(C)[C@@H]1NC(=O)[C@H](Cc2ccccc2)NC(=O)[C@@H](Cc2ccc(O)c(I)c2)NC(=O)CC2(CCCCC2)SSC[C@@H](C(=O)N2CCC[C@H]2C(=O)N[C@@H](CCCNC(=N)N)C(=O)NCC(N)=O)NC(=O)[C@H](CC(N)=O)NC1=O [B, [Pmp^1, D-Tyr(I)^2, Val^4]AVP] ([dTyr(3-I)]FVNCPRG-NH2; linker N-5 via X1) | 120
CC(C)[C@@H]1NC(=O)[C@H](Cc2ccccc2)NC(=O)[C@@H](Cc2cc(I)c(O)c(I)c2)NC(=O)CC2(CCCCC2)SSC[C@@H](C(=O)N2CCC[C@H]2C(=O)N[C@@H](CCCNC(=N)N)C(=O)NCC(N)=O)NC(=O)[C@H](CC(N)=O)NC1=O [C, [Pmp^1, D-Tyr(I2)^2, Val^4]AVP] ([dTyr(3,5-I2)]FVNCPRG-NH2; linker N-5 via X1) | 2400
